Assay results from paper PMC7497095, “Active Intermediates in Copper Nitrite Reductase Reactions Probed by a Cryotrapping‐Electron Paramagnetic Resonance Approach” (Angewandte Chemie (International Ed. in English), 2020).

Target: T1, AxNiR (Achromobacter xylosoxidans, UniProt O68601)
T1 construct: gene nir; two-domain copper nitrite reductase, homotrimer
Experiment: continuous-wave EPR of T2Cu; cryoreduction-EPR with annealing
Format: binding
Details: oxidized enzyme; T2Cu active site; EPR at 20 K

T1 sequence (O68601 entry or part of it): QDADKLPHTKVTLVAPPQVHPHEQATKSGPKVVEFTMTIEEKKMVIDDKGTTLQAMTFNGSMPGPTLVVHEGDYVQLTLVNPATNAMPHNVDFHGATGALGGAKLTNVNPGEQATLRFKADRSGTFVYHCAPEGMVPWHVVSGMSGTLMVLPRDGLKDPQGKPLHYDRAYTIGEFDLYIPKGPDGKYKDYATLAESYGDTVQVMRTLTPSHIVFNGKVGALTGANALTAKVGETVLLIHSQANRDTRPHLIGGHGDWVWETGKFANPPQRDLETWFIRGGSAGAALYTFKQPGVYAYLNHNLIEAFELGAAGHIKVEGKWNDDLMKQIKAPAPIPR

Compound: O=NO [nitrite]
- continuous-wave EPR of T2Cu; cryoreduction-EPR with annealing: This is indicative of the nitrite being bound to the catalytic T2Cu site
